According to patent US12391683B2, “Therapeutic compounds and methods” (Actio Biosciences, Inc., priority 2022, dated 2025):

Experiments:
TRPC4 channels = target: T1, TRPC4 channels (Homo sapiens, UniProt Q9UBN4); assay: TRP Family FLIPR Assay, TRPC4; assay type: cell-based; settings: HEK293 cells
T1 construct: expressed in transfected cells; host or cells: HEK293
T1 sequence (Q9UBN4 1-977): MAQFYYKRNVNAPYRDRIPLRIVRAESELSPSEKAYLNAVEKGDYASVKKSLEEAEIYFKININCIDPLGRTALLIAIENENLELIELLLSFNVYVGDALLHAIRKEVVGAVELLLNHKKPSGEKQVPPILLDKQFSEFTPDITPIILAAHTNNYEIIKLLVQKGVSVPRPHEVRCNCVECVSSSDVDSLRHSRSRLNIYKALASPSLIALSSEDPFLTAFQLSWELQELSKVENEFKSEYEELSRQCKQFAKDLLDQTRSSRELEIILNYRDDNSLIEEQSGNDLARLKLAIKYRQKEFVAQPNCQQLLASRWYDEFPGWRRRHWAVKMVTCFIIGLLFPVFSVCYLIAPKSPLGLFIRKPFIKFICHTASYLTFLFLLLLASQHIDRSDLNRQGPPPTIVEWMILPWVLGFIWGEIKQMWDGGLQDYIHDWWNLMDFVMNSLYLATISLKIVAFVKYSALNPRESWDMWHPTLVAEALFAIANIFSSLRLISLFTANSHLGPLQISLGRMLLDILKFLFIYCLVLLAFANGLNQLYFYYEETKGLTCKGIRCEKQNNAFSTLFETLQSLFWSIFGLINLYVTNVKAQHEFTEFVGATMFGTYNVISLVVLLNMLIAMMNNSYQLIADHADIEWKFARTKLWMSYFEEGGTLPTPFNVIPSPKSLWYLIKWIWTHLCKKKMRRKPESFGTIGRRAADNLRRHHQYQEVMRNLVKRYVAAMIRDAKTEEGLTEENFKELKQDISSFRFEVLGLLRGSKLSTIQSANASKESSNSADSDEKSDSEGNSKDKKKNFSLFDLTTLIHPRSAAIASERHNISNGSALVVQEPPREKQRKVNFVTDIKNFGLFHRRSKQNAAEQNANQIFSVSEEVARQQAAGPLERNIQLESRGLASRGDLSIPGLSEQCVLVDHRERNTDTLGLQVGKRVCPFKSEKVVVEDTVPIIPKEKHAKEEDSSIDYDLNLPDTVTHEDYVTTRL
Experimental: (§1) The compound of Example 5 was tested for selectivity against a panel of Human TRP family ion channels in a TRP Family FLIPR Assay as described below. • 1. TRPC3 channels (human TRPC3 variant 1 gene, expressed in HEK293 cells). • 2. TRPC4 channels (human TRPC4 gene, expressed in HEK293 cells). • 3. TRPC5 channels (human TRPC5 gene, expressed in HEK293 cells). • 4. TRPC6 channels (human TRPC6 gene, expressed in HEK293 cells). • 5. TRPM2 channels (human TRPM2 gene, transiently expressed in HEK293 cells). • 6. TRPM3 channels (human TRPM3 gene, transiently expressed in HEK293 cells). • 7. TRPM4 channels (human TRPM4 gene, expressed in CHO cells). • 8. […]
(§2) Data acquisition was performed via the FLIPR Control software supplied with the FLIPR System (MDS-AT) and data was analyzed using Microsoft Excel (Microsoft Corp., Redmond, WA) or GraphPad Prism. […]
(§3) [formula] where Base is the response at low concentrations of test article, Max is the maximum response at high concentrations, xhalf the EC50, or IC50, the concentration of test article producing either half-maximal activation or inhibition, and rate is the Hill coefficient. […] No assumptions about the fit parameters was made; the fit parameters were determined by the algorithm.
(§4) The effect of each test article was evaluated at eight (8) concentrations: 0.003, 0.01, 0.03, 0.1, 0.3, 1, 3 and 10 μM, n≤4 wells/concentration). […]

TRPA1 channels = target: T2, TRPA1 channels (Homo sapiens, UniProt O75762); assay: TRP Family FLIPR Assay, TRPA1; assay type: cell-based; settings: CHO cells
T2 construct: expressed in transfected cells; host or cells: CHO
T2 sequence (O75762 whole entry): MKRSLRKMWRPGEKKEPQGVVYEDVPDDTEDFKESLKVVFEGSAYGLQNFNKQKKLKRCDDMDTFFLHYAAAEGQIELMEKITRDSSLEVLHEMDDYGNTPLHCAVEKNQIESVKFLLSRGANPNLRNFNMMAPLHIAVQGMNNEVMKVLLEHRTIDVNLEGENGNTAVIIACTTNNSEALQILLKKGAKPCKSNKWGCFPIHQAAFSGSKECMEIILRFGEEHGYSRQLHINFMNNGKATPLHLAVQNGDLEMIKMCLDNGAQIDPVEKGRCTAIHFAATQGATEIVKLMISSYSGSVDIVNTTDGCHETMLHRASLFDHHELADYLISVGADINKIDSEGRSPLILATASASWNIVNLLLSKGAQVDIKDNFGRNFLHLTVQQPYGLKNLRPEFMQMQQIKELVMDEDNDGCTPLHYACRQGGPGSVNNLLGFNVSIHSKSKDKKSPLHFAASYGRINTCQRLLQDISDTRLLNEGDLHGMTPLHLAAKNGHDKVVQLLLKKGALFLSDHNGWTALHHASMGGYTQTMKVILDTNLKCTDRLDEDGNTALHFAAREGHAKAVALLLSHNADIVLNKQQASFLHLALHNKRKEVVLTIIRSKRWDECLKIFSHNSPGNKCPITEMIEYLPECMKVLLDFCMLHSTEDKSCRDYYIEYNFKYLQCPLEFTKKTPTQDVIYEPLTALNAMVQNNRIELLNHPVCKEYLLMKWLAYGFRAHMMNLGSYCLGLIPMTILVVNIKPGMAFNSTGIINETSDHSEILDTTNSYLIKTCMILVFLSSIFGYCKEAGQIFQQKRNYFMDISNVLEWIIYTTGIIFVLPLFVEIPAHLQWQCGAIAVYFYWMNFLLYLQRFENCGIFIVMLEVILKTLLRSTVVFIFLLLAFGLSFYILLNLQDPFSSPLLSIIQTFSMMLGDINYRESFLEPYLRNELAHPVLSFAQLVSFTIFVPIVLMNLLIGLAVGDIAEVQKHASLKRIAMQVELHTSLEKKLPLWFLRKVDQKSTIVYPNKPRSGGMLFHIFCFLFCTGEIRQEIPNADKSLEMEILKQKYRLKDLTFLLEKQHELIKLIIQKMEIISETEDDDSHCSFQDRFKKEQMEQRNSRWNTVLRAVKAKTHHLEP
Experimental: as §1, §2, §3, §4

Hepatocytes [1] = assay: Hepatocytes predicted clearance, dog
Hepatocytes [2] = assay: Hepatocytes predicted clearance, mouse

SMILES: CC(C)(O)c1cnc(N2C[C@@]3(CC[C@@H](F)[C@](C)(Cn4cnc5ccc(C#N)cc54)C3)OC2=O)cn1 (single isomer, unassigned) [Example 5]
- EC50 (TRPC4 channels; agonist mode, vs EMAX of (−)-Englerin A 30 μM, read-out: EC50 hTRPC4): > 10 µM
- IC50 (TRPC4 channels; antagonist mode, activated with 0.5 μM (−)-Englerin A, 0.003-10 μM, read-out: IC50 hTRPC4): > 1 µM
- EC50 (TRPA1 channels; agonist mode, vs EMAX of mustard oil 600 μM, read-out: EC50 hTRPA1): > 10 µM
- IC50 (TRPA1 channels; antagonist mode, activated with mustard oil 80 μM, 0.003-10 μM, read-out: IC50 hTRPA1): > 10 µM
- Hepatocytes predicted clearance in dog (Hepatocytes [1]): 11 mL/min/kg
- Hepatocytes predicted clearance in mouse (Hepatocytes [2]): 12.8 mL/min/kg
